Data: EP4806891A1 (Kangbaida (Sichuan) Biotechnology Co., Ltd., priority 2023, dated 2025)

target: T1, HEK-Blue-hTLR8 cells (Homo sapiens, UniProt Q9NR97); test: HEK-Blue-hTLR8 cell inhibition assay; format: cell-based; settings: R848 3 µM, 16 h, OD 620 nm, read-out: TLR8 IC50
T1 construct: expressed in transfected cells; host or cells: HEK-Blue-hTLR8 cells (HEK293-derived reporter line)
T1 sequence (Q9NR97 27-1041): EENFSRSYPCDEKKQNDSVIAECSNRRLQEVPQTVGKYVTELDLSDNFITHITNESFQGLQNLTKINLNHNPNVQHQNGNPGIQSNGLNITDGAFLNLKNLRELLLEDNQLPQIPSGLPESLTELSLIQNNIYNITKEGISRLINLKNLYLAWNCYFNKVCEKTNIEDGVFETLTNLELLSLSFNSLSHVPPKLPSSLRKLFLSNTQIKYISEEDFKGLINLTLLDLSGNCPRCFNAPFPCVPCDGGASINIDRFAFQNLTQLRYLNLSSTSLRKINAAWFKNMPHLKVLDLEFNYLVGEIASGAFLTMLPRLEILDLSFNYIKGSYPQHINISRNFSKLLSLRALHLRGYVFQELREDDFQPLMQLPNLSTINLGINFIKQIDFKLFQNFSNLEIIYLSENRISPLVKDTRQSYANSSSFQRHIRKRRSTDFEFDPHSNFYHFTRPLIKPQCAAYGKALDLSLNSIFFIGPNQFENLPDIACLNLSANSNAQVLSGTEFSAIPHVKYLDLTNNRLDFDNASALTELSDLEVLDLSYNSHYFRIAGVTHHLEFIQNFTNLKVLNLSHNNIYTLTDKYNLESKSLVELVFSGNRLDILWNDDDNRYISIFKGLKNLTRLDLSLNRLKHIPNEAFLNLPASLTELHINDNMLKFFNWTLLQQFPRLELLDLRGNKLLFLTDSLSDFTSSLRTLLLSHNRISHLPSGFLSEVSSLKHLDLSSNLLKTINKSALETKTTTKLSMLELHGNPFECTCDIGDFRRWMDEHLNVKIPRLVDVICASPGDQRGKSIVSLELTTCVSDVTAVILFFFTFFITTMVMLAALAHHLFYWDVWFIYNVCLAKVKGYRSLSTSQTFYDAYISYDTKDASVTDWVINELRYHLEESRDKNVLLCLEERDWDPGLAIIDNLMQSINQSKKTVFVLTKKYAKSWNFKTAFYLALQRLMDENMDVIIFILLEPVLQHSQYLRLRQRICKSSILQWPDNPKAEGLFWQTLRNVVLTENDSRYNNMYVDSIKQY
In short: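 Cells were pre-incubated 4 h, then co-treated 16 h at 37 °C with compound (10 doses, 0.5–10000 nM final) plus R848 (0.8 µM for TLR7, 3 µM for TLR8) or ODN2006 (1 µM, TLR9). Reporter OD620 gave inhibition relative to DMSO blank and agonist-only controls; IC50 came from curve fitting.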

Row | Compound | IC50
1 | CN(C)[C@H]1CC[C@H](c2nnc([C@]34CN(c5ccc(C#N)c6ncccc56)C[C@@]3(C(F)(F)F)C4)o2)CC1 [Compound 21, 5-((1S,5R)-1-(5-((1R,4S)-4-(dimethylamino)cyclohexyl)-1,3,4-oxadiazol-2-yl)-5-(trifluoromethyl)-3-azabicyclo[3.1.0]hexan-3-yl)quinoline-8-carbonitrile] | < 100 nM
2 | N#Cc1ccc(N2C[C@]3(c4nnc(C5=CCNC5)o4)C[C@]3(C(F)(F)F)C2)c2cccnc12 [Compound 22, 5-((1S,5R)-1-(5-(2,5-dihydro-1H-pyrrol-3-yl)-1,3,4-oxadiazol-2-yl)-5-(trifluoromethyl)-3-azabicyclo[3.1.0]hexan-3-yl)quinoline-8-carbonitrile] | < 100 nM
3 | CN1CCC(n2cnc([C@]34CN(c5ccc(C#N)c6ncccc56)C[C@@]3(C(F)(F)F)C4)n2)CC1 [Compound 23, 5-((1S,5R)-1-(1-(1-methylpiperidin-4-yl)-1H-1,2,4-triazol-3-yl)-5-(trifluoromethyl)-3-azabicyclo[3.1.0]hexan-3-yl)quinoline-8-carbonitrile] | < 100 nM
4 | N#Cc1ccc(N2C[C@]3(c4nnc(C#CCN5CCOCC5)o4)C[C@]3(C(F)(F)F)C2)c2cccnc12 [Compound 24, 5-((1S,5R)-1-(5-(3-morpholinoprop-1-yn-1-yl)-1,3,4-oxadiazol-2-yl)-5-(trifluoromethyl)-3-azabicyclo[3.1.0]hexan-3-yl)quinoline-8-carbonitrile] | < 100 nM
5 | CN(C)CC#Cc1nnc([C@]23CN(c4ccc(C#N)c5ncccc45)C[C@@]2(C(F)(F)F)C3)o1 [Compound 25, 5-((1S,5R)-1-(5-(3-(dimethylamino)prop-1-yn-1-yl)-1,3,4-oxadiazol-2-yl)-5-(trifluoromethyl)-3-azabicyclo[3.1.0]hexan-3-yl)quinoline-8-carbonitrile] | < 100 nM
6 | CC1(C)CC(Cc2nnc([C@]34CN(c5ccc(C#N)c6ncccc56)C[C@@]3(C(F)(F)F)C4)o2)CC(C)(C)N1 [Compound 26, 5-((1S,5R)-1-(5-((2,2,6,6-tetramethylpiperidin-4-yl)methyl)-1,3,4-oxadiazol-2-yl)-5-(trifluoromethyl)-3-azabicyclo[3.1.0]hexan-3-yl)quinoline-8-carbonitrile] | < 100 nM
7 | N#Cc1ccc(N2C[C@]3(c4nnc(N5CCOCC5)o4)C[C@]3(C(F)(F)F)C2)c2cccnc12 [Compound 27, 5-((1S,5R)-1-(5-morpholino-1,3,4-oxadiazol-2-yl)-5-(trifluoromethyl)-3-azabicyclo[3.1.0]hexan-3-yl)quinoline-8-carbonitrile] | < 1000 nM
8 | CN1CCC(Oc2nnc([C@]34CN(c5ccc(C#N)n6ncc(F)c56)C[C@@]3(C(F)(F)F)C4)o2)CC1 [Compound 31, 3-fluoro-4-((1S,5R)-1-(5-((1-methylpiperidin-4-yl)oxy)-1,3,4-oxadiazol-2-yl)-5-(trifluoromethyl)-3-azabicyclo[3.1.0]hexan-3-yl)pyrazolo[1,5-a]pyridine-7-carbonitrile] | < 100 nM
9 | N#Cc1ccc(N2C[C@]3(c4nnc(C5(F)CNC5)o4)C[C@]3(C(F)(F)F)C2)c2cccnc12 [Compound 32, 5-((1S,5R)-1-(5-(3-Fluoroazetidin-3-yl)-1,3,4-oxadiazol-2-yl)-5-(trifluoromethyl)-3-azabicyclo[3.1.0]hexan-3-yl)quinoline-8-carbonitrile] | < 100 nM
10 | N#Cc1ccc(N2C[C@]3(c4nnc(C5CCNCC5F)o4)C[C@]3(C(F)(F)F)C2)c2cccnc12 (stereo partly drawn) [Compound 33] | < 100 nM
11 | CN1CCC(c2nnc([C@]34CN(c5ccc(C#N)c6ncccc56)C[C@@]3(C(F)(F)F)C4)o2)CC1=O (stereo partly drawn) [Compound 34] | < 1000 nM
12 | N#Cc1ccc(N2C[C@]3(c4nnc(CC5CNC5)o4)C[C@]3(C(F)(F)F)C2)c2cccnc12 [Compound 35, 5-((1S,5R)-1-(5-(azetidin-3-ylmethyl)-1,3,4-oxadiazol-2-yl)-5-(trifluoromethyl)-3-azabicyclo[3.1.0]hexan-3-yl)quinoline-8-carbonitrile] | < 1000 nM
13 | CN1CC(Cc2nnc([C@]34CN(c5ccc(C#N)c6ncccc56)C[C@@]3(C(F)(F)F)C4)o2)C1 [Compound 36, 5-((1S,5R)-1-(5-((1-methylazetidin-3-yl)methyl)-1,3,4-oxadiazol-2-yl)-5-(trifluoromethyl)-3-azabicyclo[3.1.0]hexan-3-yl)quinoline-8-carbonitrile] | < 100 nM
14 | CN1CCC(Cc2nnc([C@]34CN(c5ccc(C#N)c6ncccc56)C[C@@]3(C(F)(F)F)C4)o2)CC1 [Compound 37, 5-((1S,5R)-1-(5-((1-methylpiperidin-4-yl)methyl)-1,3,4-oxadiazol-2-yl)-5-(trifluoromethyl)-3-azabicyclo[3.1.0]hexan-3-yl)quinoline-8-carbonitrile] | < 100 nM
15 | CN1CCC(Cc2nnc([C@]34CN(c5ccc(C#N)c6ncccc56)C[C@@]3(C(F)(F)F)C4)n2C)CC1 [Compound 38, 5-((1S,5R)-1-(4-methyl-5-((1-methylpiperidin-4-yl)methyl)-4H-1,2,4-triazol-3-yl)-5-(trifluoromethyl)-3-azabicyclo[3.1.0]hexan-3-yl)quinoline-8-carbonitrile] | < 1000 nM
16 | CN1CC(c2nnc([C@]34CN(c5ccc(C#N)c6ncccc56)C[C@@]3(C(F)(F)F)C4)o2)C1 [Compound 39, 5-((1S,5R)-1-(5-(1-methylazetidin-3-yl)-1,3,4-oxadiazol-2-yl)-5-(trifluoromethyl)-3-azabicyclo[3.1.0]hexan-3-yl)quinoline-8-carbonitrile] | < 100 nM
17 | N#Cc1ccc(N2C[C@]3(c4nnc(CN5CCOCC5)o4)C[C@]3(C(F)(F)F)C2)c2cccnc12 [Compound 40, 5-((1S,5R)-1-(5-(morpholinomethyl)-1,3,4-oxadiazol-2-yl)-5-(trifluoromethyl)-3-azabicyclo[3.1.0]hexan-3-yl)quinoline-8-carbonitrile] | < 1000 nM
18 | N#Cc1ccc(N2C[C@]3(c4nnc(CN5CCCC5)o4)C[C@]3(C(F)(F)F)C2)c2cccnc12 [Compound 41, 5-((1S,5R)-1-(5-(Pyrrolidin-1-ylmethyl)-1,3,4-oxadiazol-2-yl)-5-(trifluoromethyl)-3-azabicyclo[3.1.0]hexan-3-yl)quinoline-8-carbonitrile] | < 1000 nM
19 | CN(C)Cc1nnc([C@]23CN(c4ccc(C#N)c5ncccc45)C[C@@]2(C(F)(F)F)C3)o1 [Compound 42, 5-((1S,5R)-1-(5-((dimethylamino)methyl)-1,3,4-oxadiazol-2-yl)-5-(trifluoromethyl)-3-azabicyclo[3.1.0]hexan-3-yl)quinoline-8-carbonitrile] | < 1000 nM
20 | N#Cc1ccc(N2C[C@]3(c4nnc(CCN5CCOCC5)o4)C[C@]3(C(F)(F)F)C2)c2cccnc12 [Compound 43, 5-((1S,5R)-1-(5-(morpholinoethyl)-1,3,4-oxadiazol-2-yl)-5-(trifluoromethyl)-3-azabicyclo[3.1.0]hexan-3-yl)quinoline-8-carbonitrile] | < 100 nM
21 | Cn1c(CN2CCCC2)nnc1[C@]12CN(c3ccc(C#N)c4ncccc34)C[C@@]1(C(F)(F)F)C2 [Compound 44, 5-((1S,5R)-1-(4-methyl-5-(pyrrolidin-1-ylmethyl)-4H-1,2,4-triazol-3-yl)-5-(trifluoromethyl)-3-azabicyclo[3.1.0]hexan-3-yl)quinoline-8-carbonitrile] | > 1000 nM
